Our source for the TGI values is PubChem BioAssay (NCI).

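Five compound concentrations were applied to cells in 96-well plates for 48 hours; endpoints were derived by simple linear interpolation of the resulting dose-response curve. At the TGI there is no net growth.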

Common to all, as to assay: DTP human tumour cell line panel, 48 h
Test [1] deals with SK-MEL-28 melanoma.
In test [2] the test system is HOP-62 NSCLC.
Test [3] concerns A498 renal.
For test [4], the system named is NCI-H226 lung.
Test [5] has as its system HS 578T breast.
Test [6] has as its system SF-539 CNS.
Test [7] concerns HCT-116 colon.
In test [8] the test system is TK-10 renal.
In test [9] the test system is BT-549 breast.
Test [10] deals with SK-MEL-5 melanoma.
In test [11] the test system is HCT-15 colon.
The subject of test [12] is MDA-N.
Test [13] relates to MOLT-4 leukemia.
Test [14] deals with M14 melanoma.
Test [15] concerns UO-31 renal.
The test system of test [16] is CAKI-1 renal.
Test [17] relates to RXF 393 renal.
For test [18], the system named is SK-MEL-2 melanoma.
Test [19] concerns SNB-75 CNS.
In test [20] the test system is UACC-62 melanoma.

Turning to `CCCCCC(=O)CCCCCCCC(O)CC(=O)OCC` (stereo not drawn), the TGI in test [1], in [2], in test [3], in test [4], in test [5] and in [6] was over 100 µM throughout. Further, the concentration for total growth inhibition (TGI) in [7], in [8], in [9], in [10], in [11] and in test [12] was over 100 µM throughout. Besides, the total growth inhibition concentration (TGI) in [13], in test [14], in test [15] and in test [16] was over 100 µM in each case.

Regarding `c1ccc(NN=C(c2ccccn2)c2ccccn2)nc1`, the total growth inhibition concentration (TGI) (usually the concentration giving total growth inhibition) in test [1] was over 100 µM; in test [17], over 100 µM; in test [3], 7.11 µM; in test [5], over 100 µM; in [6], over 47.5 µM; in test [7], over 100 µM. Moreover, the TGI in test [8], in test [9], in test [18], in test [10], in test [11] and in test [19] was over 100 µM in each case. Also, the values for the total growth inhibition concentration (TGI) in test [12], in [15] and in test [16] were over 100 µM, 0.513 µM and over 100 µM, respectively.

Take `[N-]=[N+]=NC1C(O)C(CO)OC1n1ccc(=O)[nH]c1=O` (stereo not drawn): the TGI in [1], in test [2], in test [3], in test [4], in [20] and in test [5] was over 875 µM each time. In addition, the TGI in [6], in test [7], in test [8], in test [9], in test [18] and in test [10] was over 875 µM each time. The TGI in test [11], in [19], in [12], in [13], in test [14] and in test [15] was over 875 µM throughout. The concentration for total growth inhibition (TGI) in test [16] is over 875 µM.

On to `CN1C(=O)c2ccccc2OC12C=Cc1ccc(O)cc1O2` (stereo not drawn), for which the concentration for total growth inhibition (TGI) in test [1] was over 100 µM; in test [2], 73.7 µM; in [3], 53.4 µM; in test [4] it was 92.8 µM; in test [20] it was 91.6 µM; in [5], 84.3 µM. Besides, the TGI was 81 µM in [7]; over 100 µM in test [8]; 85.5 µM in test [9]; 56.1 µM in test [18]; 37.6 µM in test [10]; over 100 µM in test [11]. Moreover, the TGI is 80.1 µM in test [19]; over 100 µM in test [12]; 58.7 µM in test [13]; 45.3 µM in [14]; 57.7 µM in test [15]; 58 µM in test [16].

For `O=C(c1ccccc1)c1c(-c2ccccc2)n(-c2ccccc2)[nH]c(=O)c1=O`, the concentration for total growth inhibition (TGI) is over 100 µM in test [1]; over 100 µM in test [2]; over 100 µM in test [3]; over 100 µM in test [4]; 75.5 µM in [20]; 62.1 µM in [5]. Further, the concentration for total growth inhibition (TGI) in test [6] is 46.8 µM; in test [7], over 100 µM; in test [8] it was over 100 µM; in [9], 91.7 µM; in [18], 65.7 µM; in test [10], over 100 µM. Besides, the TGI in test [11], in test [12], in test [13], in [14], in [15] and in test [16] was over 100 µM in each case.

In the case of `O=C(c1cccs1)N(C(=O)N1CCN(c2ccccc2)CC1)S(=O)(=O)c1ccccc1`, the concentration for total growth inhibition (TGI) was 56.3 µM in [1]; over 100 µM in test [2]; over 100 µM in test [3]; 53.8 µM in test [4]; 33.8 µM in [20]; 65.9 µM in test [5]. Moreover, the total growth inhibition concentration (TGI) is 35.2 µM in [6]; 38.6 µM in test [7]; over 100 µM in test [8]; 84 µM in test [9]; 36.3 µM in test [18]; 30.7 µM in test [10]. Also, the TGI in [11] amounted to 75.4 µM; in test [19], 61.2 µM; in test [12], 41.8 µM; in test [13] it was 49.8 µM; in [14] it was 36 µM; in test [15] it was 40.8 µM. Also, the TGI in test [16] is 59.9 µM.

Turning to `O=C(Nc1nncs1)NS(=O)(=O)n1c(=S)sc2ccccc21`, the TGI in test [1], in test [17], in [2], in [3], in test [20] and in test [5] was over 100 µM throughout. The TGI in test [6], in test [7], in test [8], in test [9], in test [18] and in test [10] was over 100 µM each time. The TGI in [11], in test [19], in test [12], in [13], in [14] and in [15] was over 100 µM each time. For the same molecule, the TGI in test [16] is over 100 µM.

For the molecule `CCOC(=O)CO/N=C1/C(c2c(O)[nH]c3ccccc23)=Nc2ccccc21`, the concentration for total growth inhibition (TGI) was over 100 µM in test [1]; 29.2 µM in test [17]; 46 µM in [2]; 38.2 µM in test [3]; over 100 µM in test [20]; over 100 µM in [5]. For the same molecule, the TGI in test [6], in [7], in test [8], in test [9], in [18] and in [10] was over 100 µM each time. In addition, the TGI in test [11] was over 100 µM; in test [19], 9.88 µM; in [12] it was over 100 µM; in [13], 78.5 µM; in test [14] it was over 100 µM; in test [15], over 100 µM. Besides, the TGI in test [16] is over 100 µM.

Consider `COc1cc(C(C)=O)cc(C(=O)N(C(C)C)C(C)C)c1[Si](C)(C)C`, for which the total growth inhibition concentration (TGI) in [1], in [2], in [3], in test [4], in test [20] and in [5] was over 100 µM in each case. The concentration for total growth inhibition (TGI) in [6], in test [7], in test [8], in [9], in [18] and in test [10] was over 100 µM each time. In addition, the TGI in test [11] was over 100 µM; in test [19], 56.4 µM; in test [12] it was over 100 µM; in test [13], over 100 µM; in test [14] it was over 100 µM; in [15] it was over 100 µM. Besides, in test [16], the TGI is over 100 µM.

On to `COc1ccc(CC2c3cc(OC)c(OC)cc3CC[N+]2(C)C)cc1OC` (stereo not drawn), for which the total growth inhibition concentration (TGI) in test [1], in test [3], in [4], in test [20], in test [5] and in test [6] was over 100 µM each time. The TGI in test [7], in [8], in test [9], in test [18], in test [10] and in test [11] was over 100 µM in each case. For the same molecule, the TGI in test [19], in [12], in test [13], in test [15] and in test [16] was over 100 µM in each case.

With `CN(C)CC1CCC/C(=C\c2ccc(Cl)cc2)C1=O` (stereo not drawn), the total growth inhibition concentration (TGI) turned out to be 9.04 µM in test [1]; 34.2 µM in [2]; 31.1 µM in test [3]; 28.8 µM in test [4]; 4.5 µM in [20]; 12.3 µM in test [5]. Besides, the concentration for total growth inhibition (TGI) in [6] was found to be 29.1 µM; in test [7], 3.55 µM; in test [8] it was 10 µM; in test [9] it was 3.45 µM; in [18], 2.05 µM; in test [10], 12.3 µM. For the same molecule, the concentration for total growth inhibition (TGI) is 4.86 µM in test [11]; 14.9 µM in [19]; 5.17 µM in test [12]; over 21.7 µM in test [13]; 6.15 µM in [14]; 4.52 µM in [15]. Moreover, in test [16], the TGI was found to be 3.72 µM.

Regarding `Cc1cc(C)c2c(c1)C/C(=C\c1ccccc1C(=O)O)C2=O`, the TGI in test [1], in test [17], in [2], in test [3], in test [4] and in [5] was over 100 µM in each case. Besides, the total growth inhibition concentration (TGI) in test [6] is over 100 µM; in [7], over 100 µM; in test [8], over 100 µM; in [9], 97.8 µM; in [10] it was over 100 µM; in test [11], over 100 µM. Besides, the TGI in [19], in [12], in [13], in test [14], in test [15] and in [16] was over 100 µM throughout.

On to `Cc1cc(C)c(C(=O)c2nnc3ccccc3c2N)c(C)c1`, for which the concentration for total growth inhibition (TGI) in [1] is 56.7 µM; in test [2], 32.9 µM; in test [3] it was over 100 µM; in [4] it was 49.7 µM; in test [20], 62.1 µM; in test [5] it was 57.3 µM. Further, the total growth inhibition concentration (TGI) was 23.6 µM in test [7]; over 100 µM in test [9]; 31.9 µM in test [18]; 26.8 µM in test [10]; 86.3 µM in [19]; 52.6 µM in test [12]. Also, the TGI in test [13] was over 100 µM; in test [14] it was 34 µM; in [16] it was 75.9 µM.

For the molecule `CC(C)N(C(=O)C1(O)c2ccccc2C=Cc2ccccc21)C(C)C`, the TGI in test [1] stood at 31.4 µM; in [2], 35.6 µM; in [3], 29.8 µM; in test [4] it was 35.8 µM; in test [20] it was 29.5 µM; in test [5], 68.8 µM. The TGI was 33.4 µM in test [6]; 32.8 µM in test [7]; 31.9 µM in test [8]; 34.6 µM in test [9]; 30.7 µM in test [18]; 29.8 µM in [10]. The TGI in [11] is 44.6 µM; in test [12], 37.9 µM; in test [13] it was 82.8 µM; in test [14], 40.1 µM; in test [15] it was 40.1 µM; in test [16], 57.7 µM.

Consider `COc1cc(O)c(C(=O)/C=C/c2ccc(O)cc2)cc1Oc1ccc(/C=C/C(=O)c2ccc(O)cc2O)cc1`, for which the TGI is 15.2 µM in test [1]; 17.5 µM in [17]; 18.7 µM in test [2]; 14.1 µM in test [3]; 17.6 µM in [20]; over 50 µM in [5]. The TGI in test [6] was found to be 16.2 µM; in [7] it was 14.7 µM; in test [8], 25.6 µM; in [9], 22.6 µM; in [18] it was 21.9 µM; in test [10] it was 14.3 µM. The concentration for total growth inhibition (TGI) in [11] was found to be 21 µM; in test [19], 20.1 µM; in test [12], 31 µM; in [13] it was 38.8 µM; in [14], 17.4 µM; in test [15], 18.2 µM. The TGI in test [16] is 38.9 µM.
